Assay results published in publication PMC9863556, “Influence of Green Synthesized Zinc Oxide Nanoparticles on Molecular Interaction and Comparative Binding of Azure Dye with Chymotrypsin: Novel Nano-Conjugate for Cancer Phototherapy” (Pharmaceutics, 2022).

Target: α-chymotrypsin (α-Chymo) (Bos taurus, UniProt P00766)
Assay: UV-Visible titration (Benesi-Hildebrand binding constant), supported by tryptophan fluorescence quenching (Ksv […] at […] K, static) and CD

## CNc1ccc2nc3ccc(N)cc3[s+]c2c1 [AzC, AzureC]
  Kd: 17.5 µM
